Laboratory results taken from patent publication US10399987B2, “TGF beta receptor antagonists” (BRISTOL-MYERS SQUIBB COMPANY, priority 2015, dated 2019).

Target: HIS-TGFβR1 T204D (Homo sapiens (Human), UniProt P36897, T204D)
Assay: TGFβR1 HIS T204D HTRF assay (labeled small molecule probe, anti-HIS detection antibody)
Format: binding
Conditions: 1 nM HIS-TGFβR1 T204D, probe at Kd, 1 hour at room temperature, eleven concentrations

HIS-TGFβR1 T204D, sequence (P36897 34-503 T204D): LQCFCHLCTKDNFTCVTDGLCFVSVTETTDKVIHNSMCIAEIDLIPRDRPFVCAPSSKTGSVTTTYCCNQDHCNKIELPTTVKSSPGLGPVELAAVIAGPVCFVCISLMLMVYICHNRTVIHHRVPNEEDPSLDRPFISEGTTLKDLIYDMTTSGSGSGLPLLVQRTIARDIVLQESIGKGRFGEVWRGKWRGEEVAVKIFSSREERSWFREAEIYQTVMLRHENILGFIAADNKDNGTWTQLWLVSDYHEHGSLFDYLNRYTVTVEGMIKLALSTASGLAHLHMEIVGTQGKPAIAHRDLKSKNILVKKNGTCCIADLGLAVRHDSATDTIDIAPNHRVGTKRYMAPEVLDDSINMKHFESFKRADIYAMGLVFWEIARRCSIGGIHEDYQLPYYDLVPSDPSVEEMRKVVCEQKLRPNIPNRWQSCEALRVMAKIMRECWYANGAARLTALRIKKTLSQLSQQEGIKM

Row | IC50 [nM] | Compound
1 | 0.25 | Fc1cnccc1Nc1nc(-c2cccc(C(F)F)n2)nc2[nH]ccc12 [Example 2, 2-(6-(difluoromethyl)pyridin-2-yl)-N-(3-fluoropyridin-4-yl)-7H-pyrrolo[2,3-d]pyrimidin-4-amine]
2 | 0.78 | CC(=O)Nc1cc(Nc2nc(-c3cccc(C(F)F)n3)nc3[nH]ccc23)ccn1 [Example 3, N-(4-((2-(6-(difluoromethyl)pyridin-2-yl)-7H-pyrrolo[2,3-d]pyrimidin-4-yl)amino)pyridin-2-yl)acetamide]
3 | 0.42 | O=C(CN1CCCC1)Nc1cc(Nc2nc(-c3cccc(C(F)(F)F)n3)nc3[nH]ccc23)ccn1 [Example 4, 2-(pyrrolidin-1-yl)-N-(4-((2-(6-(trifluoromethyl)pyridin-2-yl)-7H-pyrrolo[2,3-d]pyrimidin-4-yl)amino)pyridin-2-yl)acetamide]
4 | 0.53 | CN1CCN(CC(=O)Nc2cc(Nc3nc(-c4cccc(C(F)(F)F)n4)nc4[nH]ccc34)ccn2)CC1 [Example 5, 2-(4-methylpiperazin-1-yl)-N-(4-((2-(6-(trifluoromethyl)pyridin-2-yl)-7H-pyrrolo[2,3-d]pyrimidin-4-yl)amino)pyridin-2-yl)acetamide]
5 | 0.76 | Cc1c[nH]c2nc(-c3cccc(C(F)F)n3)nc(Nc3ccncc3F)c12 [Example 6, 2-(6-(difluoromethyl)pyridin-2-yl)-N-(3-fluoropyridin-4-yl)-5-methyl-7H-pyrrolo[2,3-d]pyrimidin-4-amine]
6 | 3.7 | CN1CCN(Cc2c[nH]c3nc(-c4cccc(C(F)F)n4)nc(Nc4ccncc4F)c23)CC1 [Example 7, 2-(6-(difluoromethyl)pyridin-2-yl)-N-(3-fluoropyridin-4-yl)-5-((4-methylpiperazin-1-yl)methyl)-7H-pyrrolo[2,3-d]pyrimidin-4-amine]
7 | 0.26 | Fc1cnccc1Nc1nc(-c2ccccn2)nc2[nH]ccc12 [Example 8, N-(3-fluoropyridin-4-yl)-2-(pyridin-2-yl)-7H-pyrrolo[2,3-d]pyrimidin-4-amine]
8 | 1.2 | c1ccc(-c2nc(-n3ccc4cnccc43)c3cc[nH]c3n2)nc1 [Example 9, 2-(pyridin-2-yl)-4-(1H-pyrrolo[3,2-c]pyridin-1-yl)-7H-pyrrolo[2,3-d]pyrimidine]
9 | 0.6 | Cc1nc(-c2nc(Nc3ccncc3F)c3cc[nH]c3n2)ccc1F [Example 11, 2-(5-fluoro-6-methylpyridin-2-yl)-N-(3-fluoropyridin-4-yl)-7H-pyrrolo[2,3-d]pyrimidin-4-amine]
10 | 0.64 | FC(F)c1cccc(-c2nc(-n3ccc4cnccc43)c3cc[nH]c3n2)n1 [Example 12, 2-(6-(difluoromethyl)pyridin-2-yl)-4-(1H-pyrrolo[3,2-c]pyridin-1-yl)-7H-pyrrolo[2,3-d]pyrimidine]
11 | 4 | Cc1nc(-c2nc(Nc3cc(Cl)ncc3F)c3cc[nH]c3n2)ccc1F [Example 13, N-(2-chloro-5-fluoropyridin-4-yl)-2-(5-fluoro-6-methylpyridin-2-yl)-7H-pyrrolo[2,3-d]pyrimidin-4-amine]
12 | 0.91 | Fc1ccc(-c2nc(Nc3ccncc3F)c3cc[nH]c3n2)nc1 [Example 14, 2-(5-fluoropyridin-2-yl)-N-(3-fluoropyridin-4-yl)-7H-pyrrolo[2,3-d]pyrimidin-4-amine]
13 | 160 | FC(F)c1cccc(-c2nc(Nc3ccnc(Cl)n3)c3cc[nH]c3n2)n1 [Example 15, N-(2-chloropyrimidin-4-yl)-2-(6-(difluoromethyl)pyridin-2-yl)-7H-pyrrolo[2,3-d]pyrimidin-4-amine]
14 | 0.71 | CC(=O)Nc1cc(Nc2nc(-c3cccc(C(F)F)n3)nc3[nH]ccc23)c(F)cn1 [Example 16, N-(4-((2-(6-(difluoromethyl)pyridin-2-yl)-7H-pyrrolo[2,3-d]pyrimidin-4-yl)amino)-5-fluoropyridin-2-yl)acetamide]
15 | 0.76 | COC(=O)Nc1cc(Nc2nc(-c3cccc(C(F)F)n3)nc3[nH]ccc23)ccn1 [Example 17, methyl (4-((2-(6-(difluoromethyl)pyridin-2-yl)-7H-pyrrolo[2,3-d]pyrimidin-4-yl)amino)pyridin-2-yl)carbamate]
16 | 1.3 | CC(=O)Nc1cc(Nc2nc(-c3ccc(F)c(C)n3)nc3[nH]ccc23)c(F)cn1 [Example 18, N-(5-fluoro-4-((2-(5-fluoro-6-methylpyridin-2-yl)-7H-pyrrolo[2,3-d]pyrimidin-4-yl)amino)pyridin-2-yl)acetamide]
17 | 5.8 | O=C1CCCN1c1cc(Nc2nc(-c3cccc(C(F)F)n3)nc3[nH]ccc23)ccn1 [Example 19, 1-(4-((2-(6-(difluoromethyl)pyridin-2-yl)-7H-pyrrolo[2,3-d]pyrimidin-4-yl)amino)pyridin-2-yl)pyrrolidin-2-one]
18 | 0.9 | CC(=O)Nc1cc(Nc2nc(-c3ccccn3)nc3[nH]ccc23)ccn1 [Example 21, N-(4-((2-(pyridin-2-yl)-7H-pyrrolo[2,3-d]pyrimidin-4-yl)amino)pyridin-2-yl)acetamide]
19 | 1 | CC(=O)Nc1cc(Nc2nc(-c3cccc(C)n3)nc3[nH]ccc23)ccn1 [Example 22, N-(4-((2-(6-methylpyridin-2-yl)-7H-pyrrolo[2,3-d]pyrimidin-4-yl)amino)pyridin-2-yl)acetamide]
20 | 4.7 | CC(=O)Nc1cc(Nc2nc(-c3ccc(C(F)(F)F)cn3)nc3[nH]ccc23)ccn1 [Example 23, N-(4-((2-(5-(trifluoromethyl)pyridin-2-yl)-7H-pyrrolo[2,3-d]pyrimidin-4-yl)amino)pyridin-2-yl)acetamide]
21 | 0.74 | CCC(=O)Nc1cc(Nc2nc(-c3cccc(C(F)(F)F)n3)nc3[nH]ccc23)ccn1 [Example 24, N-(4-((2-(6-(trifluoromethyl)pyridin-2-yl)-7H-pyrrolo[2,3-d]pyrimidin-4-yl)amino)pyridin-2-yl)propionamide]
22 | 1.5 | CC(=O)Nc1cc(Nc2nc(-c3cccc(C(F)F)n3)nc3[nH]cc(C)c23)ccn1 [Example 25, N-(4-((2-(6-(difluoromethyl)pyridin-2-yl)-5-methyl-7H-pyrrolo[2,3-d]pyrimidin-4-yl)amino)pyridin-2-yl)acetamide]
23 | 2.7 | CC(C)(C)CC(=O)Nc1cc(Nc2nc(-c3cccc(C(F)(F)F)n3)nc3[nH]ccc23)ccn1 [Example 26, 3,3-dimethyl-N-(4-((2-(6-(trifluoromethyl)pyridin-2-yl)-7H-pyrrolo[2,3-d]pyrimidin-4-yl)amino)pyridin-2-yl)butanamide]
24 | 0.85 | CC(C)CC(=O)Nc1cc(Nc2nc(-c3cccc(C(F)(F)F)n3)nc3[nH]ccc23)ccn1 [Example 27, 3-methyl-N-(4-((2-(6-(trifluoromethyl)pyridin-2-yl)-7H-pyrrolo[2,3-d]pyrimidin-4-yl)amino)pyridin-2-yl)butanamide]
25 | 970 | CS(=O)(=O)Nc1cc(Nc2nc(-c3cccc(C(F)(F)F)n3)nc3[nH]ccc23)ccn1 [Example 28, N-(4-((2-(6-(trifluoromethyl)pyridin-2-yl)-7H-pyrrolo[2,3-d]pyrimidin-4-yl)amino)pyridin-2-yl)methanesulfonamide]
26 | 0.77 | CC(=O)Nc1cc(Nc2nc(-c3ccc(F)c(C)n3)nc3[nH]ccc23)ccn1 [Example 29, N-(4-((2-(5-fluoro-6-methylpyridin-2-yl)-7H-pyrrolo[2,3-d]pyrimidin-4-yl)amino)pyridin-2-yl)acetamide]
